Assay results taken from patent US20240262822A1, “WDR5 INHIBITORS AND MODULATORS” (Vanderbilt University, priority 2021, published 2024).
Like-named read-outs stand apart in the source and are kept apart here.

Legend:
[1] = system: MV4:11 human cancer cell lines; experiment: Cellular viability / anti-proliferative activity, CellTiter-Glo, 5 day protocol; assay type: cell-based; details: Homo sapiens, 5 day incubation
Procedure: Anti-proliferative activity using MLL-harboring cell lines. MV-4-11 and K562 cells are grown in IMDM media supplemented with 10% FBS and 1% penicillin/streptomycin, Molm-13 cells are cultured in RPMI-1640 media supplemented with 10% FBS and 1% penicillin/streptomycin. Viability assays are performed by dispensing 200 cells at 7200 cells/mL into each well of an opaque 384-well plate and adding compounds at the indicated concentrations in a final volume of 32 μL and a final concentration of DMSO of 0.3% for all samples. A certain range of compound concentrations is made through a series of 2-fold dilutions starting 30 μM at the highest, total 22 dilutions. After a set incubation period, 5 day protocol, the viability of cells in each well is assessed using the CellTiter-Glo assay (Promega), read on a 96 Microplane Luminometer (Cytation 3, BioTek). Serial dilutions of each cell type are performed in all assays to generate standard curves and the final densities of cells are determined within the dynamic range of the instrument. GI50 values are calculated based on XLfit software (IDBS, Guildford, UK) with Sigmoidal Dose-Response Model. Each compound is tested in minimum of two replicates. Data are expressed as mean.

WDR5 = target: T1, WDR5 (Homo sapiens, UniProt P61964); experiment: Time Resolved-Fluorescence Energy Transfer (TR-FRET) competition assay, displacement of 10mer-Thr-FAM probe from His-tagged WDR5; assay type: binding; details: WDR5-His tag 2 nM, 10mer-Thr-FAM 150 nM, 60 minutes at room temperature
T1 construct: WDR5-His Tag (A23, residues 24-334) is expressed and purified in our lab; made in house
Description: Excess 10mer-Thr-FAM probe was utilized with His-tagged WDR5 in conjunction with a commercial anti-His antibody containing a Terbium label. The LanthaScreen™ Elite Tb-anti-HIS Antibody from ThermoFisher Scientific was used for this purpose. This Tb-anti-HIS has an excitation/emission of 340 nm and 490 nm, respectively. The 10mer-Thr-FAM probe when bound to WDR5 will undergo a FRET interaction with the Tb-anti-HIS and emit at 520 nm. […] WDR5-His Tag (A23, residues 24-334) is expressed and purified in our lab in sufficient quantities for screening. 10mer-Thr-FAM peptide is used at 150 nM. WDR5-His tag protein is used at 2 nM. A source plate is prepared using an Echo Liquid Handler, which distributes the compounds to the assay plate (white, flat-bottom; OptiPlate) in a 10-point, 5-fold dilution schemes with a top concentration of 5 μM, in a final volume of 20 μL. A final target (WDR5)/Tb-Ab concentration of 2 nM/1 nM is dispensed from appropriate stock solutions, respectively. The final DMSO concentration in each well of the assay plate is 1% or lower. The plate is covered, shielded from light, and incubated for 60 minutes at room temperature with rocking. 10mer-Thr-FAM and Anti-His terbium antibody fluorescence is then measured on a Biotek Cytation 3 at excitation wavelength of 340 nm, and emission wavelengths of 495 nm and 520 nm. Working buffer conditions contain 1× Phosphate Buffered Saline, 300 mM NaCl, 0.5 mM TCEP, 0.1% CHAPS, at pH 7.2. TR-FRET signal is plotted and IC50 and Ki values are calculated according to the formula of Wang Z. FEBS Lett (1996) 3, 245.
where […] is the concentration of the free inhibitor at 50% inhibition, [L]50 is the concentration of the free labeled ligand at 50% inhibition, [P]0 is the concentration of the free protein at 0% inhibition, Kd represents the dissociation constant of the FITC-MLL or 10mer-Thr-FAM probe for WDR5. Total fluorescence is also measured, to rule out compounds that are inherently fluorescent or able to act as quenchers in the assay. TR-FRET binding assay

[2] = MV4-11, 120 h, MV4:11 cells, read-out: GI50 for representative compounds on cellular proliferation of MV4:11 human cancer cell lines
[3] = read-out: Ki for Exemplified Compounds for Inhibition of WDR5 by TR-FRET assay
[4] = read-out: Ki for additional WDR5 inhibitor compounds for Inhibition of WDR5 by TR-FRET assay
[5] = MV4-11, 120 h, MV4;11 cells, read-out: GI50 for additional WDR5 inhibitor compounds on cellular proliferation of MV4;11 human cancer cell lines

Row | Compound | GI50 [1, 2] [nM] | Ki (WDR5; [3]) [nM] | GI50 ([1]; 120 h, MV4;11 cells, read-out: GI50 for additional WDR5 inhibitor compounds on cellular proliferation of MV4;11 human cancer cell lines) [nM] | Ki (WDR5; [4]) [nM] | GI50 [1, 5] [nM]
1 | CCc1cc2c(N3CCc4c(cc(Cn5ccnc5)cc4-c4cn(C)nc4C(F)(F)F)C3=O)ccnc2c(N2CCN(C)CC2)n1 [Example 46, 7-((1H-Imidazol-1-yl)methyl)-2-(6-ethyl-8-(4-methylpiperazin-1-yl)-1,7-naphthyridin-4-yl)-5-(1-methyl-3-(trifluoromethyl)-1H-pyrazol-4-yl)-3,4-dihydroisoquinolin-1(2H)-one] | < 20 | < 0.02 | – | – | –
2 | CCc1cc(C(=O)NCCN(C)C)c2nccc(N3CCc4c(cc(Cn5ccnc5)cc4-c4cn(C)nc4C(F)(F)F)C3=O)c2c1 [Compound B-166] | – | – | < 20 | 0.029 | –
3 | COc1cc(C(=O)Nc2cn[nH]c2)c2nc(C)cc(N3CCc4c(cc(Cn5ccnc5)cc4-c4cn(C)nc4C(F)(F)F)C3=O)c2c1 [Compound B-201] | – | – | – | 0.023 | 23
4 | CCc1cc2c(N3CCc4c(cc(Cn5ccnc5)cc4-c4cn(C)nc4C(F)(F)F)C3=O)ccnc2c(-n2cccc2)n1 [Example 35, 7-((1H-Imidazol-1-yl)methyl)-2-(6-ethyl-8-(1H-pyrrol-1-yl)-1,7-naphthyridin-4-yl)-5-(1-methyl-3-(trifluoromethyl)-1H-pyrazol-4-yl)-3,4-dihydroisoquinolin-1(2H)-one] | 47 | < 0.02 | – | – | –
5 | CCc1cnc2c(c1)[C@@H](N1CCc3c(cc(Cn4ccnc4)cc3-c3cn(C)nc3C(F)(F)F)C1=O)CCO2 [Example 11, (S)-7-((1H-Imidazol-1-yl)methyl)-2-(6-ethyl-3,4-dihydro-2H-pyrano[2,3-b]pyridin-4-yl)-5-(1-methyl-3-(trifluoromethyl)-1H-pyrazol-4-yl)-3,4-dihydroisoquinolin-1(2H)-one] | < 20 | < 0.02 | – | – | –
6 | COc1cc2c(N3CCc4c(cc(Cn5ccnc5)cc4-c4cn(C)nc4C(F)(F)F)C3=O)ncnc2cc1O [Example 23, 7-((1H-Imidazol-1-yl)methyl)-2-(7-hydroxy-6-methoxyquinazolin-4-yl)-5-(1-methyl-3-(trifluoromethyl)-1H-pyrazol-4-yl)-3,4-dihydroisoquinolin-1(2H)-one] | 1280 | 0.025 | – | – | –
7 | COc1cc2c(N3CCc4c(cc(Cn5ccnc5)cc4-c4cn(C)nc4C(F)(F)F)C3=O)nc(C)nc2cc1F [Example 53, 7-((1H-Imidazol-1-yl)methyl)-2-(7-fluoro-6-methoxy-2-methylquinazolin-4-yl)-5-(1-methyl-3-(trifluoromethyl)-1H-pyrazol-4-yl)-3,4-dihydroisoquinolin-1(2H)-one] | < 20 | < 0.02 | – | – | –
8 | CCc1cc2c(N3CCc4c(cc(Cn5ccnc5)cc4-c4cn(C)nc4C(F)(F)F)C3=O)ccnc2c(C(=O)NC)n1 [Example 20, 4-(7-((1H-Imidazol-1-yl)methyl)-5-(1-methyl-3-(trifluoromethyl)-1H-pyrazol-4-yl)-1-oxo-3,4-dihydroisoquinolin-2(1H)-yl)-6-ethyl-N-methyl-1,7-naphthyridine-8-carboxamide] | 290 | < 0.02 | – | – | –
9 | CCc1cnc2c(c1)C(N1CCc3c(cc(Cn4ccnc4)cc3-c3cn(C)nc3C(F)(F)F)C1=O)COC2 (centres unmarked) [Example 21, 7-((1H-Imidazol-1-yl)methyl)-2-(3-ethyl-5,8-dihydro-6H-pyrano[3,4-b]pyridin-5-yl)-5-(1-methyl-3-(trifluoromethyl)-1H-pyrazol-4-yl)-3,4-dihydroisoquinolin-1(2H)-one] | < 20 | < 0.02 | – | – | –
10 | CCc1cc(C2CCOCC2)c2nc(C)cc(N3CCc4c(cc(Cn5ccnc5)cc4-c4cn(C)nc4C(F)(F)F)C3=O)c2c1 [Compound B-165] | – | – | – | 0.042 | 129
11 | CCc1cc2c(N3CCc4c(cc(Cn5ccnc5)cc4-c4cn(C)nc4C(F)(F)F)C3=O)ccnc2c(NC)n1 [Example 9, 7-((1H-Imidazol-1-yl)methyl)-2-(6-ethyl-8-(methylamino)-1,7-naphthyridin-4-yl)-5-(1-methyl-3-(trifluoromethyl)-1H-pyrazol-4-yl)-3,4-dihydroisoquinolin-1(2H)-one] | 102 | < 0.02 | – | – | –
12 | CCc1cc(OC)c2nc(C)nc(N3CCc4c(cc(Cn5ccnc5)cc4-c4cn(C)nc4C(F)(F)F)C3=O)c2c1 [Example 51, 7-((1H-Imidazol-1-yl)methyl)-2-(6-ethyl-8-methoxy-2-methylquinazolin-4-yl)-5-(1-methyl-3-(trifluoromethyl)-1H-pyrazol-4-yl)-3,4-dihydroisoquinolin-1(2H)-one] | < 20 | 0.022 | – | – | –
13 | CCc1cc2c(N3CCc4c(cc(Cn5ccnc5)cc4-c4cn(C)nc4C(F)(F)F)C3=O)ccnc2c(N2CCCC2)n1 [Example 34, 7-((1H-Imidazol-1-yl)methyl)-2-(6-ethyl-8-(pyrrolidin-1-yl)-1,7-naphthyridin-4-yl)-5-(1-methyl-3-(trifluoromethyl)-1H-pyrazol-4-yl)-3,4-dihydroisoquinolin-1(2H)-one] | 75 | < 0.02 | – | – | –
14 | COc1cc2nc(C)nc(N3CCc4c(cc(Cn5ccnc5)cc4-c4cc(C)nn4C)C3=O)c2cc1OC [Example 59, 7-((1H-Imidazol-1-yl)methyl)-2-(6,7-dimethoxy-2-methylquinazolin-4-yl)-5-(1,3-dimethyl-1H-pyrazol-5-yl)-3,4-dihydroisoquinolin-1(2H)-one] | 90 | < 0.02 | – | – | –
15 | COc1cc2nc(C)nc(N3CCc4c(cc(Cn5ccnc5)cc4-c4cc(C(F)(F)F)nn4C)C3=O)c2cc1OC [Example 61, 7-((1H-Imidazol-1-yl)methyl)-2-(6,7-dimethoxy-2-methylquinazolin-4-yl)-5-(1-methyl-3-(trifluoromethyl)-1H-pyrazol-5-yl)-3,4-dihydroisoquinolin-1(2H)-one] | 128 | 0.031 | – | – | –
16 | CCc1cc(N2CCN(C3COC3)C(=O)C2)c2nc(C)cc(N3CCc4c(cc(Cn5ccnc5)cc4-c4cn(C)nc4C(F)(F)F)C3=O)c2c1 [Compound B-132] | – | – | – | 0.03 | < 20
17 | CCc1cc2c(N3CCc4c(cc(Cn5ccnc5)cc4-c4cn(C)nc4C(F)(F)F)C3=O)ccnc2c(N2CCOCC2)n1 [Example 44, 7-((1H-Imidazol-1-yl)methyl)-2-(6-ethyl-8-morpholino-1,7-naphthyridin-4-yl)-5-(1-methyl-3-(trifluoromethyl)-1H-pyrazol-4-yl)-3,4-dihydroisoquinolin-1(2H)-one] | < 20 | < 0.02 | – | – | –
18 | COc1cc2c(N3CCc4c(cc(Cn5ccnc5)cc4-c4cn(C)nc4C(F)(F)F)C3=O)ncnc2cc1F [Example 32, 7-((1H-Imidazol-1-yl)methyl)-2-(7-fluoro-6-methoxyquinazolin-4-yl)-5-(l-methyl-3-(trifluoromethyl)-1H-pyrazol-4-yl)-3,4-dihydroisoquinolin-1(2H)-one] | < 20 | < 0.02 | – | – | –
19 | COc1ccc2nccc(N3CCc4c(cc(Cn5ccnc5)cc4-c4cn(C)nc4C(F)(F)F)C3=O)c2n1 [Example 17, 7-((1H-Imidazol-1-yl)methyl)-2-(6-methoxy-1,5-naphthyridin-4-yl)-5-(1-methyl-3-(trifluoromethyl)-1H-pyrazol-4-yl)-3,4-dihydroisoquinolin-1(2H)-one] | 362 | 0.03 | – | – | –
